The results in this text go back to ChEMBL document CHEMBL1201862, “PubChem BioAssay data set” (2004).

Common to all, as to assay: NCI-60 cell line screen, 48 h
Experiment [1] has as its system UACC-62.
For experiment [2], the system named is HOP-92.
Experiment [3] relates to UACC-257.
Experiment [4] relates to UO-31.
For experiment [5], the system named is OVCAR-5.
For experiment [6], the system named is SN12C.
The subject of experiment [7] is HOP-62.
Experiment [8] concerns SF-539.
The subject of experiment [9] is IGROV-1.
Experiment [10] concerns TK-10.
The test system of experiment [11] is MOLT-4.
In experiment [12] the test system is SK-MEL-28.
Experiment [13] relates to SK-MEL-5.
The test system of experiment [14] is RPMI-8226.
Experiment [15] deals with U-251.
The test system of experiment [16] is SK-MEL-2.
Experiment [17] concerns CCRF-CEM.
The test system of experiment [18] is HT-29.
In experiment [19] the test system is OVCAR-3.
Experiment [20] concerns T47D.

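How tested: cells in 96-well plates exposed to compound for 48 hours at five concentrations. The concentration for 50% growth inhibition is given as GI50.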 Calls of active or inactive are those of the source. Rule as the data show it: active = GI50 up to about 1.1 µM and inactive = higher. A value given as a limit tells only on which side of the number the result lay.

On to `COC(=O)[C@]1(c2cc3ccccc3[nH]2)CC2CNC1C1OC(C)(C)OC21` (stereo not given in full), for which the GI50 in experiment [1], in experiment [2], in experiment [3], in [4], in experiment [5] and in experiment [6] was > 100 µM (inactive) in each case. In addition, the GI50 in [7] is > 100 µM (inactive); in [8], > 100 µM (inactive); in experiment [9] it was > 100 µM (inactive); in experiment [10], > 100 µM (inactive); in experiment [11] it was 66.4 µM (inactive); in [12], > 100 µM (inactive). Besides, the GI50 was > 100 µM (inactive) in experiment [13]; 61.4 µM (inactive) in experiment [14]; > 100 µM (inactive) in [15]; > 100 µM (inactive) in experiment [16]; > 100 µM (inactive) in experiment [17]; > 100 µM (inactive) in [18]. For the same molecule, the GI50 was > 100 µM (inactive) in [19] and 52.4 µM (inactive) in experiment [20].
With `Cc1nc(N)sc1/N=N/c1ccccc1Br`, the GI50 was 28.6 µM (inactive) in experiment [1]; 18 µM (inactive) in experiment [2]; 32.9 µM (inactive) in experiment [3]; 31 µM (inactive) in experiment [4]; 41.6 µM (inactive) in experiment [5]; 34.8 µM (inactive) in [6]. Also, the GI50 in experiment [7] was 39.3 µM (inactive); in experiment [8], > 44.1 µM (inactive); in experiment [9], 24.1 µM (inactive); in experiment [10] it was 37.9 µM (inactive); in experiment [11], > 52.2 µM (inactive); in experiment [12], 33.1 µM (inactive). For the same molecule, the GI50 is 31.3 µM (inactive) in experiment [13]; 65.3 µM (inactive) in [14]; 31 µM (inactive) in experiment [15]; 34 µM (inactive) in experiment [16]; 3.75 µM (inactive) in experiment [17]; 35.9 µM (inactive) in experiment [18]. Further, the values for the GI50 in experiment [19] and in [20] were 38.2 µM (inactive) and 15.8 µM (inactive), respectively.
`C=C(CC[C@@H](C)[C@H]1CC[C@H]2[C@@H]3C[C@@H](O)[C@H]4C[C@@H](O)CC[C@]4(CO)[C@H]3CC[C@]12C)C(C)C`: the GI50 in experiment [1] was 8.15 µM (inactive); in experiment [2], 8.28 µM (inactive); in experiment [3], 7.46 µM (inactive); in [4], 3.42 µM (inactive); in [5], 6.68 µM (inactive); in [6] it was 6.11 µM (inactive). Further, the GI50 in experiment [7] was 7.57 µM (inactive); in experiment [8] it was 9.75 µM (inactive); in [9], 5.18 µM (inactive); in [10], 2.37 µM (inactive); in [11], 3.3 µM (inactive); in [12], 4.1 µM (inactive). Further, the GI50 in experiment [13] was 8.79 µM (inactive); in experiment [14], 5.08 µM (inactive); in [15], 6.44 µM (inactive); in experiment [16], 7.33 µM (inactive); in experiment [17], 3.56 µM (inactive); in experiment [18], 1.98 µM (inactive). In addition, the GI50 in experiment [19] is 2.52 µM (inactive); in experiment [20], 1.79 µM (inactive).
In the case of `ClCCc1ccccc1CC1=NCCc2ccccc21`, the GI50 in experiment [1] is 28.6 µM (inactive); in experiment [2], 28.1 µM (inactive); in experiment [3] it was 34 µM (inactive); in experiment [4], 14.4 µM (inactive); in [5] it was 40.6 µM (inactive); in experiment [6] it was 40.7 µM (inactive). Further, the GI50 in experiment [7] was 34.8 µM (inactive); in experiment [8], 38.8 µM (inactive); in experiment [9] it was 32 µM (inactive); in [10] it was 41.7 µM (inactive); in [11], 26.9 µM (inactive); in experiment [12] it was 47.6 µM (inactive). Moreover, the GI50 is 22.8 µM (inactive) in experiment [13]; 16.3 µM (inactive) in experiment [14]; 31.8 µM (inactive) in [15]; 18.5 µM (inactive) in [16]; 39.9 µM (inactive) in experiment [17]; 17.4 µM (inactive) in experiment [18]. For the same molecule, the GI50 in experiment [19] was 28.8 µM (inactive); in [20], 21.9 µM (inactive).
With `Cc1ccc2c(c1)C1(C)OC(C=CC1=O)O2` (stereo not given), the GI50 is 0.839 µM (active) in [1]; 0.435 µM (active) in experiment [2]; 1.01 µM (active) in [3]; 1.14 µM (inactive) in [4]; 1.85 µM (inactive) in [5]; 0.308 µM (active) in [6]. For the same molecule, the GI50 is 3.43 µM (inactive) in [7]; 0.488 µM (active) in experiment [8]; 2.18 µM (inactive) in experiment [9]; 1.4 µM (inactive) in experiment [10]; 0.225 µM (active) in [11]; 0.586 µM (active) in experiment [12]. The GI50 is 1.32 µM (inactive) in [13]; 0.308 µM (active) in experiment [14]; 0.29 µM (active) in experiment [15]; 1.77 µM (inactive) in experiment [16]; 0.114 µM (active) in experiment [17]; 0.267 µM (active) in experiment [18]. Besides, the GI50 in experiment [19] is 0.344 µM (active); in experiment [20], 0.705 µM (active).
Regarding `Nc1nc(Cl)cc(NCC2(CO)CC(CCCc3ccccc3)C2)n1` (stereo not given), the GI50 was > 100 µM (inactive) in [1]; 34 µM (inactive) in [2]; 0.242 µM (active) in experiment [3]; 13.8 µM (inactive) in [4]; > 100 µM (inactive) in experiment [5]; > 36.6 µM (inactive) in experiment [6]. For the same molecule, the GI50 in [7] is > 100 µM (inactive); in experiment [8], > 100 µM (inactive); in [9], > 72.8 µM (inactive); in experiment [10], > 77.4 µM (inactive); in experiment [11], > 26.9 µM (inactive); in [12], > 100 µM (inactive). Moreover, the GI50 in experiment [13] is 0.31 µM (active); in [14] it was > 100 µM (inactive); in experiment [15] it was > 85.3 µM (inactive); in experiment [16], > 100 µM (inactive); in experiment [17], > 73.1 µM (inactive); in experiment [18], 25.4 µM (inactive). Further, the GI50 in experiment [19] was > 100 µM (inactive); in experiment [20], 2.31 µM (inactive).
As for `Cn1c2ccccc2c(=O)c2c(O)cc3c(c21)CC(C1(C)CO1)O3` (stereo not given), the GI50 in experiment [1] was 2.16 µM (inactive); in experiment [2] it was 9.08 µM (inactive); in experiment [3], 3.93 µM (inactive); in [4], 1.42 µM (inactive); in [5] it was 6.53 µM (inactive); in experiment [6], 1.42 µM (inactive). For the same molecule, the GI50 in experiment [7] was 3.15 µM (inactive); in experiment [8] it was 3.2 µM (inactive); in experiment [9], 5.87 µM (inactive); in experiment [10] it was 11.4 µM (inactive); in [11], 0.0665 µM (active); in [12], 2.79 µM (inactive). Further, the GI50 is 1.79 µM (inactive) in experiment [13]; 2.82 µM (inactive) in experiment [14]; 3.16 µM (inactive) in experiment [15]; 0.887 µM (active) in experiment [16]; 0.056 µM (active) in experiment [17]; 4.41 µM (inactive) in experiment [18]. Moreover, the GI50 in [19] is 3.61 µM (inactive); in experiment [20], 11.5 µM (inactive).
